In test [1] the test system is Trichophyton rubrum. In words: MIC/MFC by micro-dilution method. The conditions noted are these: for MFC / MIC: Trichophyton rubrum.
Test [2] relates to Escherichia coli ATCC35218. In words: MIC/MBC by micro-dilution method. (In broth dilution the organism is exposed to a series of concentrations in liquid medium.)
For test [3], the system named is P. aeruginosa, Klebsiella pneumoniae, E. coli, Salmonella typhimurium, and S. aureus. Conditions: at a concentration of 315 ± 0.04 µg/mL; cited from earlier work.
For test [4], the system named is Microsporum gypseum. In words: MIC/MFC by micro-dilution method. The conditions noted are these: for MFC / MIC: Nannizzia gypsea.
The test system of test [5] is Pseudomonas aeruginosa ATCC10145. In words: MIC/MBC by micro-dilution method.
Test [6] relates to Trichophyton mentagrophytes. The test is described as follows: MIC/MFC by micro-dilution method. The conditions noted are these: for MFC / MIC: Trichophyton mentagrophytes.
Test [7] has as its system A. fumigatus, A. flavus, A. niger, and tested Chrysosporium species. The arrangement: method as in earlier work. Conditions: at 30 mg/mL; isolated from fruit extract of Flacourtia inermis Roxb; cited from earlier work.
The test system of test [8] is Candida albicans (TISTR 5779). In words: MIC/MFC by micro-dilution method. Conditions: for MFC / MIC: Candida albicans, TISTR5779.
The subject of test [9] is Propionibacterium acnes (DMST 14916). The test is described as follows: MIC/MBC by micro-dilution method. Conditions: Cutibacterium acnes.
Test [10] deals with Staphylococcus aureus (ATTC 25923). In words: MIC/MBC by micro-dilution method.
Test [11] concerns Staphylococcus epidermidis (TISTR 517). The test is described as follows: MIC/MBC by micro-dilution method. The conditions noted are these: TISTR517.
In test [12] the target is tyrosinase. Conditions: previous study, read-out: IC50, anti-tyrosinase activity, cited from earlier work.
For test [13], the system named is MRSA, S. epidermidis, Propionibacterium acnes, Escherichia coli, and Pseudomonas aeruginosa. The test is described as follows: MIC/MBC by micro-dilution, summary over bacteria (abstract).
Test [14] has as its system Candida albicans, Microsporum gypseum, Trichophyton rubrum, and T. mentagrophytes. The test is described as follows: MIC/MFC by micro-dilution, summary over yeast and filamentous fungi (abstract). The conditions noted are these: C. albicans, M. gypseum. The class given is cell-based.
For test [15], the system named is B. aureus, L. monocytogenes, and E. coli. Also noted: method as in doi:10.17221/132/2010-CJFS. Conditions: cited from earlier work.
The subject of test [16] is Rhizopus stolonifer and Botrytis. Also noted: method as in doi:10.1016/S0925-5214(96)00031-2. Conditions: at a dosage of 5 mM; cited from earlier work.
The test system of test [17] is tyrosinase. Conditions: cited from earlier work.

In brackets after ≈: the same amount, converted by molar mass. Read-outs that look alike come from different tables or passages of the source.

For the compound `O=C(O)c1cccc(O)c1O` [compound 5, 2,3-dihydroxybenzoic acid], the MFC in [1] was 10 µg/mL (≈ 64.9 µM); in test [4], 10 µg/mL (≈ 64.9 µM); in test [6] it was 10 µg/mL (≈ 64.9 µM); in test [8], 15 µg/mL (≈ 97.3 µM). Besides, the MIC was found to be 10 µg/mL (≈ 64.9 µM) in test [1]; 15 µg/mL (≈ 97.3 µM) in test [2]; 10 µg/mL (≈ 64.9 µM) in test [4]; 15 µg/mL (≈ 97.3 µM) in test [5]; 10 µg/mL (≈ 64.9 µM) in test [6]; 10 µg/mL (≈ 64.9 µM) in [8]. Moreover, the MIC in [9], in test [10] (Staphylococcus aureus) and in [11] was 15 µg/mL (≈ 97.3 µM) each time. Besides, the MBC in test [2] was 15 µg/mL (≈ 97.3 µM); in test [5] it was 20 µg/mL (≈ 130 µM); in test [9], 20 µg/mL (≈ 130 µM); in [10] (Staphylococcus aureus), 15 µg/mL (≈ 97.3 µM); in test [11], 15 µg/mL (≈ 97.3 µM). For the same compound, in [3], the growth of bacteria result is “inhibited the growth”. Moreover, the antifungal action result in test [7] is recorded as “preventing the growth”.

In the case of `CCCCCCCCCCCCCCCC(=O)O` [compound 2, hexadecanoic acid], the MFC in test [1], in test [4], in test [6] and in [8] was above 100 µg/mL in each case. For the same compound, the MIC in [1], in test [2], in test [4], in test [5], in [6] and in test [8] was above 100 µg/mL each time. The MIC in test [9], in [10] (Staphylococcus aureus) and in test [11] was above 100 µg/mL each time. Further, the MBC in test [2], in test [5], in test [9], in test [10] (Staphylococcus aureus) and in test [11] was above 100 µg/mL in each case.

For the compound `O=c1c(-c2ccc(O)cc2)coc2cc(O)cc(O)c12` [compound 1, genistein], the MFC in [1], in [4], in test [6] and in test [8] was above 100 µg/mL in each case. The MIC in [1], in test [2], in test [4], in test [5], in test [6] and in [8] was above 100 µg/mL in each case. Also, the MIC in [9], in test [10] (Staphylococcus aureus) and in test [11] was above 100 µg/mL in each case. The MBC in test [2], in [5], in test [9], in [10] (Staphylococcus aureus) and in test [11] was above 100 µg/mL each time. Also, the results for the concentration for half-maximal inhibition (IC50) in test [12] (ref 40) and in test [12] (ref 41) were 363 µM and 822 µM, respectively.

Turning to `O=C(O)c1cc(O)ccc1O` [compound 6, 2,5-dihydroxybenzoic acid], the MFC in test [1], in test [4], in test [6], in test [14] and in test [8] was 15 µg/mL (≈ 97.3 µM) throughout. Moreover, the MIC in [1] was 15 µg/mL (≈ 97.3 µM); in test [13], 15 to 30 µg/mL (≈ 97.3 to 195 µM); in test [2], 20 µg/mL (≈ 130 µM); in test [4], 15 µg/mL (≈ 97.3 µM); in [5] it was 20 µg/mL (≈ 130 µM); in [6], 15 µg/mL (≈ 97.3 µM). In addition, the MIC in test [14] is 15 µg/mL (≈ 97.3 µM); in test [15], 2500 µM (≈ 385 µg/mL); in [8], 15 µg/mL (≈ 97.3 µM); in test [9], 30 µg/mL (≈ 195 µM); in [10] (S. aureus) it was 5 µg/mL (≈ 32.4 µM); in [10] (Staphylococcus aureus), 5 µg/mL (≈ 32.4 µM). The same compound displayed an MIC in test [11] of 15 µg/mL (≈ 97.3 µM). In addition, the MBC in test [13] is 15 to 40 µg/mL (≈ 97.3 to 260 µM); in test [2] it was 35 µg/mL (≈ 227 µM); in test [5], 35 µg/mL (≈ 227 µM); in [9], 40 µg/mL (≈ 260 µM); in test [10] (S. aureus), 5 µg/mL (≈ 32.4 µM); in test [10] (Staphylococcus aureus), 5 µg/mL (≈ 32.4 µM). This compound also came in with an MBC in [11] of 15 µg/mL (≈ 97.3 µM). For the same compound, the spore germination result in [16] is “inhibited”.

For the compound `O=C(O)c1ccccc1O` [compound 3, salicylic acid], the “type of inhibition (Lineweaver–Burk plots)” value in test [17] is given as “non-competitive inhibitor”.

For `CC[C@H](CC[C@@H](C)[C@H]1CC[C@H]2[C@@H]3CC=C4C[C@@H](O[C@@H]5O[C@H](CO)[C@@H](O)[C@H](O)[C@H]5O)CC[C@]4(C)[C@H]3CC[C@]12C)C(C)C` [compound 4, β-sitosterol-D-glucoside], the MFC in test [1], in test [4], in [6] and in test [8] was above 100 µg/mL in each case. In addition, the MIC in test [1], in test [2], in test [4], in [5], in [6] and in test [8] was above 100 µg/mL each time. Moreover, the MIC in [9], in [10] (Staphylococcus aureus) and in test [11] was above 100 µg/mL in each case. The MBC in test [2], in [5], in test [9], in [10] (Staphylococcus aureus) and in [11] was above 100 µg/mL throughout.

For `CC(=O)N1CCN(c2ccc(OCC3COC(Cn4ccnc4)(c4ccc(Cl)cc4Cl)O3)cc2)CC1` (centres unmarked) [ketoconazole, reference compound], the “Antibiotic * (positive control value; MIC/MFC not specified)” value in test [1] (T. rubrum), in [4] (M. gypseum) and in test [6] (T. mentagrophytes) was 0.25 throughout.

Turning to `C[C@@H]1[C@H](O)[C@@H](C)/C=C/C=C/C=C/C=C/C=C/C=C/C=C/[C@H](O[C@@H]2O[C@H](C)[C@@H](O)[C@H](N)[C@@H]2O)C[C@@H]2O[C@](O)(C[C@@H](O)C[C@@H](O)[C@H](O)CC[C@@H](O)C[C@@H](O)CC(=O)O[C@H]1C)C[C@H](O)[C@H]2C(=O)O` [amphotericin B, reference compound], in test [8] (C. albicans), the “Antibiotic * (positive control value; MIC/MFC not specified)” value worked out at 0.5.

As usually defined, the MIC is the smallest concentration in the dilution series that meets the test's criterion for growth inhibition. Usually MBC stands for the lowest tested concentration that kills the bacteria rather than only halting them. Low readings indicate more potent killing, high ones less potent killing. In general, IC50 refers to the midpoint of a concentration-inhibition curve.
